Assay results: US20070128217A1 (priority 2003, published 2007)

Assays:
[1] = system: control sera (pooled serum of ten healthy LUMC hospital workers; commercial negative donor pooled serum from the Dutch bloodbank); type: binding, human; set-up: Binding of Control serum LUMC to linear peptides / Binding of Control serum Blood-bank to linear peptides / Binding of Control serum LUMC to looped peptides / Binding of Control Serum Blood-Bank to Looped peptides / Binding of Control serum LUMC to linear peptides of the protein M of SARS-CoV Urbani / Binding of Control serum Blood-bank to linear peptides of the protein M of SARS-CoV Urbani / Binding of Control serum LUMC to looped peptides of the protein M of SARS-CoV Urbani / Binding of Control Serum Blood-Bank to Looped peptides of the protein M of SARS-CoV Urbani: unit not given here
[2] = system: rabbit serum obtained by immunizing a rabbit with the SARS-CoV strain Frankfurt 1; type: binding; set-up: Binding of a rabbit serum to linear peptides / Binding of a rabbit serum to looped peptides / Rabbit serum linear peptides / Rabbit serum looped peptides / Binding of a rabbit serum to linear peptides of protein N of SARS-CoV Urbani (Rabbit serum linear peptides) / Binding of a rabbit serum to looped/cyclic peptides of protein N of SARS-CoV Urbani (Rabbit serum looped peptides): unit not given here

Sequence: LGSITAQPVKIDNAS
- Binding of Control Serum Blood-Bank to Looped peptides [1]: 0.4
- Binding of Control serum Blood-bank to linear peptides [1]: 0.4
- Binding of Control serum LUMC to linear peptides [1]: 0.5
- Binding of Control serum LUMC to looped peptides [1]: 0.4
- Binding of a rabbit serum to linear peptides [2]: 0.3
- Binding of a rabbit serum to looped peptides [2]: 0.4

Sequence: LKEDYQIGGYSEDRH
- Binding of Control Serum Blood-Bank to Looped peptides [1]: 0.4
- Binding of Control serum Blood-bank to linear peptides [1]: 0.5
- Binding of Control serum LUMC to linear peptides [1]: 0.5
- Binding of Control serum LUMC to looped peptides [1]: 0.5
- Binding of a rabbit serum to linear peptides [2]: 0.1
- Binding of a rabbit serum to looped peptides [2]: 0.7

Sequence: LNTDHAGSNDNIALL
- Binding of Control Serum Blood-Bank to Looped peptides of the protein M of SARS-CoV Urbani [1]: 0.7
- Binding of Control serum Blood-bank to linear peptides of the protein M of SARS-CoV Urbani [1]: 0.6
- Binding of Control serum LUMC to linear peptides of the protein M of SARS-CoV Urbani [1]: 0.7
- Binding of Control serum LUMC to looped peptides of the protein M of SARS-CoV Urbani [1]: 0.9
- Rabbit serum linear peptides [2]: 0.0
- Rabbit serum looped peptides [2]: 0.3

Sequence: LRIGTQVLKTMSLYM
- Binding of Control Serum Blood-Bank to Looped peptides [1]: 0.7
- Binding of Control serum Blood-bank to linear peptides [1]: 0.6
- Binding of Control serum LUMC to linear peptides [1]: 0.4
- Binding of Control serum LUMC to looped peptides [1]: 0.7
- Binding of a rabbit serum to linear peptides [2]: 0.4
- Binding of a rabbit serum to looped peptides [2]: 0.4

Sequence: LRMAGHPLGRCDIKD
- Binding of Control Serum Blood-Bank to Looped peptides of the protein M of SARS-CoV Urbani [1]: 0.8
- Binding of Control serum Blood-bank to linear peptides of the protein M of SARS-CoV Urbani [1]: 0.7
- Binding of Control serum LUMC to linear peptides of the protein M of SARS-CoV Urbani [1]: 0.5
- Binding of Control serum LUMC to looped peptides of the protein M of SARS-CoV Urbani [1]: 0.8
- Rabbit serum linear peptides [2]: 0.3
- Rabbit serum looped peptides [2]: 0.1

Sequence: LSYYKLGASQRVGTD
- Binding of Control Serum Blood-Bank to Looped peptides of the protein M of SARS-CoV Urbani [1]: 0.7
- Binding of Control serum Blood-bank to linear peptides of the protein M of SARS-CoV Urbani [1]: 0.8
- Binding of Control serum LUMC to linear peptides of the protein M of SARS-CoV Urbani [1]: 0.8
- Binding of Control serum LUMC to looped peptides of the protein M of SARS-CoV Urbani [1]: 0.7
- Rabbit serum linear peptides [2]: 0.2
- Rabbit serum looped peptides [2]: 0.3

Sequence: LVKDPPNVQIHTIDG
- Binding of Control Serum Blood-Bank to Looped peptides [1]: 0.6
- Binding of Control serum Blood-bank to linear peptides [1]: 0.4
- Binding of Control serum LUMC to linear peptides [1]: 0.4
- Binding of Control serum LUMC to looped peptides [1]: 0.7
- Binding of a rabbit serum to linear peptides [2]: 0.1
- Binding of a rabbit serum to looped peptides [2]: 0.5

Sequence: LVKPTVYVYSRVKNL
- Binding of Control Serum Blood-Bank to Looped peptides [1]: 0.7
- Binding of Control serum Blood-bank to linear peptides [1]: 0.8
- Binding of Control serum LUMC to linear peptides [1]: 0.4
- Binding of Control serum LUMC to looped peptides [1]: 0.7
- Binding of a rabbit serum to linear peptides [2]: 0.6
- Binding of a rabbit serum to looped peptides [2]: 0.9

Sequence: MADNGTITVEELKQL
- Binding of Control Serum Blood-Bank to Looped peptides of the protein M of SARS-CoV Urbani [1]: 0.4
- Binding of Control serum Blood-bank to linear peptides of the protein M of SARS-CoV Urbani [1]: 0.5
- Binding of Control serum LUMC to linear peptides of the protein M of SARS-CoV Urbani [1]: 0.6
- Binding of Control serum LUMC to looped peptides of the protein M of SARS-CoV Urbani [1]: 0.6
- Recognition of the peptide by the rabbit serum [2]: recognized

Sequence: MAGHPLGRCDIKDLP
- Binding of Control Serum Blood-Bank to Looped peptides of the protein M of SARS-CoV Urbani [1]: 0.5
- Binding of Control serum Blood-bank to linear peptides of the protein M of SARS-CoV Urbani [1]: 0.7
- Binding of Control serum LUMC to linear peptides of the protein M of SARS-CoV Urbani [1]: 0.5
- Binding of Control serum LUMC to looped peptides of the protein M of SARS-CoV Urbani [1]: 0.5
- Rabbit serum linear peptides [2]: 0.4
- Rabbit serum looped peptides [2]: 0.3

Sequence: MRTFRIAIWNLDVII
- Binding of Control Serum Blood-Bank to Looped peptides of the protein X3 of SARS-CoV Urbani [1]: 0.8
- Binding of Control serum Blood-bank to linear peptides of the protein X3 of SARS-CoV Urbani [1]: 0.7
- Binding of Control serum LUMC to linear peptides of the protein X3 of SARS-CoV Urbani [1]: 0.6
- Binding of Control serum LUMC to looped peptides of the protein X3 of SARS-CoV Urbani [1]: 0.8
- Rabbit serum linear peptides [2]: 0.3
- Rabbit serum looped peptides [2]: 0.4

Sequence: NCQDPAGGALIARCW
- Binding of Control Serum Blood-Bank to Looped peptides [1]: 0.8
- Binding of Control serum Blood-bank to linear peptides [1]: 0.6
- Binding of Control serum LUMC to linear peptides [1]: 0.3
- Binding of Control serum LUMC to looped peptides [1]: 0.6
- Rabbit serum linear peptides [2]: 0.5
- Rabbit serum looped peptides [2]: 0.5

Sequence: NIVNVSLVKPTVYVY
- Binding of Control Serum Blood-Bank to Looped peptides [1]: 0.6
- Binding of Control serum Blood-bank to linear peptides [1]: 0.6
- Binding of Control serum LUMC to linear peptides [1]: 0.4
- Binding of Control serum LUMC to looped peptides [1]: 0.8
- Binding of a rabbit serum to linear peptides [2]: 0.5
- Binding of a rabbit serum to looped peptides [2]: 0.6

Sequence: NKLVKDPPNVQIHTI
- Binding of Control Serum Blood-Bank to Looped peptides [1]: 0.8
- Binding of Control serum Blood-bank to linear peptides [1]: 1.0
- Binding of Control serum LUMC to linear peptides [1]: 0.9
- Binding of Control serum LUMC to looped peptides [1]: 0.9
- Binding of a rabbit serum to linear peptides [2]: 0.1
- Binding of a rabbit serum to looped peptides [2]: 0.6

Sequence: NPAMDPIYDEPTTTT
- Binding of Control Serum Blood-Bank to Looped peptides [1]: 0.4
- Binding of Control serum Blood-bank to linear peptides [1]: 0.4
- Binding of Control serum LUMC to linear peptides [1]: 0.3
- Binding of Control serum LUMC to looped peptides [1]: 0.4
- Binding of a rabbit serum to linear peptides [2]: 0.1
- Binding of a rabbit serum to looped peptides [2]: 0.3

Sequence: NTDHAGSNDNIALLV
- Binding of Control Serum Blood-Bank to Looped peptides of the protein M of SARS-CoV Urbani [1]: 1.0
- Binding of Control serum Blood-bank to linear peptides of the protein M of SARS-CoV Urbani [1]: 0.8
- Binding of Control serum LUMC to linear peptides of the protein M of SARS-CoV Urbani [1]: 0.5
- Binding of Control serum LUMC to looped peptides of the protein M of SARS-CoV Urbani [1]: 0.9
- Rabbit serum linear peptides [2]: 0.4
- Rabbit serum looped peptides [2]: 0.4

Sequence: NVTINCQDPAGGALI
- Binding of Control Serum Blood-Bank to Looped peptides [1]: 0.7
- Binding of Control serum Blood-bank to linear peptides [1]: 0.8
- Binding of Control serum LUMC to linear peptides [1]: 0.6
- Binding of Control serum LUMC to looped peptides [1]: 0.7
- Rabbit serum linear peptides [2]: 0.6
- Rabbit serum looped peptides [2]: 0.5

Sequence: NWVTGGIAIAMACIV
- Binding of Control Serum Blood-Bank to Looped peptides of the protein M of SARS-CoV Urbani [1]: 0.6
- Binding of Control serum Blood-bank to linear peptides of the protein M of SARS-CoV Urbani [1]: 0.7
- Binding of Control serum LUMC to linear peptides of the protein M of SARS-CoV Urbani [1]: 0.8
- Binding of Control serum LUMC to looped peptides of the protein M of SARS-CoV Urbani [1]: 0.9
- Rabbit serum linear peptides [2]: 0.2
- Rabbit serum looped peptides [2]: 0.3

Sequence: NYDYCIPYNSVTDTI
- Binding of Control Serum Blood-Bank to Looped peptides [1]: 0.6
- Binding of Control serum Blood-bank to linear peptides [1]: 0.6
- Binding of Control serum LUMC to linear peptides [1]: 0.6
- Binding of Control serum LUMC to looped peptides [1]: 0.7
- Binding of a rabbit serum to linear peptides [2]: 0.1
- Binding of a rabbit serum to looped peptides [2]: 0.5

Sequence: NYFVCWHTHNYDYCI
- Binding of Control Serum Blood-Bank to Looped peptides [1]: 0.6
- Binding of Control serum Blood-bank to linear peptides [1]: 0.6
- Binding of Control serum LUMC to linear peptides [1]: 0.6
- Binding of Control serum LUMC to looped peptides [1]: 0.6
- Binding of a rabbit serum to linear peptides [2]: 0.1
- Binding of a rabbit serum to looped peptides [2]: 0.5

Sequence: PAMDPIYDEPTTTTS
- Binding of Control Serum Blood-Bank to Looped peptides [1]: 0.5
- Binding of Control serum Blood-bank to linear peptides [1]: 0.4
- Binding of Control serum LUMC to linear peptides [1]: 0.4
- Binding of Control serum LUMC to looped peptides [1]: 0.4
- Binding of a rabbit serum to linear peptides [2]: 0.1
- Binding of a rabbit serum to looped peptides [2]: 0.4

Sequence: PKLKEDYQIGGYSED
- Binding of Control Serum Blood-Bank to Looped peptides [1]: 0.5
- Binding of Control serum Blood-bank to linear peptides [1]: 0.4
- Binding of Control serum LUMC to linear peptides [1]: 0.4
- Binding of Control serum LUMC to looped peptides [1]: 0.7
- Binding of a rabbit serum to linear peptides [2]: 0.1
- Binding of a rabbit serum to looped peptides [2]: 0.6

Sequence: PLGRCDIKDLPKEIT
- Binding of Control Serum Blood-Bank to Looped peptides of the protein M of SARS-CoV Urbani [1]: 0.9
- Binding of Control serum Blood-bank to linear peptides of the protein M of SARS-CoV Urbani [1]: 0.6
- Binding of Control serum LUMC to linear peptides of the protein M of SARS-CoV Urbani [1]: 0.4
- Binding of Control serum LUMC to looped peptides of the protein M of SARS-CoV Urbani [1]: 0.8
- Rabbit serum linear peptides [2]: 0.3
- Rabbit serum looped peptides [2]: 0.4

Sequence: PNVTINCQDPAGGAL
- Binding of Control Serum Blood-Bank to Looped peptides [1]: 0.4
- Binding of Control serum Blood-bank to linear peptides [1]: 1.0
- Binding of Control serum LUMC to linear peptides [1]: 0.7
- Binding of Control serum LUMC to looped peptides [1]: 0.4
- Rabbit serum linear peptides [2]: 0.6
- Rabbit serum looped peptides [2]: 0.2
